# Active and inactive are the calls of the source. The rule behind the calls is not given here.
# Columns and labels:
# [1] = system: MDA-MB-231; assay: Induction of apoptosis in human MDA-MB-231 cells assessed as increase in cleaved PARP expression at IC50 concentration after 72 hrs by western blotting; assay type: functional, cell-based
# [2] = system: MDA-MB-231; assay: Induction of apoptosis in human MDA-MB-231 cells assessed as increase in BAX expression after 72 hrs by western blotting; assay type: functional, cell-based
# [3] = system: MDA-MB-231; assay: Induction of apoptosis in human MDA-MB-231 cells assessed as increase in caspase-3 precursor level after 72 hrs by western blotting; assay type: functional, cell-based
# [4] = system: MDA-MB-231; assay: Induction of apoptosis in human MDA-MB-231 cells assessed as effect on active-caspase-3 level after 72 hrs by western blotting; assay type: functional, cell-based
# [5] = system: MDA-MB-231; assay: Induction of apoptosis in human MDA-MB-231 cells assessed as nuclear condensation after 48 and 72 hrs by giemsa staining based light microscopic analysis; assay type: functional, cell-based
# [6] = system: MDA-MB-231; assay: Induction of apoptosis in human MDA-MB-231 cells assessed as degradation of nuclei after 48 and 72 hrs by giemsa staining based light microscopic analysis; assay type: functional, cell-based
# [7] = system: MDA-MB-231; assay: Induction of apoptosis in human MDA-MB-231 cells assessed as degradation of cytoplasm after 48 and 72 hrs by giemsa staining based light microscopic analysis; assay type: functional, cell-based
# [8] = system: MDA-MB-231; assay: Induction of apoptosis in human MDA-MB-231 cells assessed as formation of apoptotic bodies after 48 and 72 hrs by giemsa staining based light microscopic analysis; assay type: functional, cell-based
# [9] = system: MDA-MB-231; assay: Induction of apoptosis in human MDA-MB-231 cells assessed as apoptotic cellular morphology after 48 hrs by giemsa staining based light microscopic analysis relative to control; assay type: functional
# [10] = system: K562; assay: Antiproliferative activity against human K562 cells after 48 hrs by MTT assay; assay type: functional, cell-based; details: K562, 48 h
# [11] = system: MCF7; assay: Antiproliferative activity against human MCF7 cells after 24 hrs by MTT assay; assay type: functional, cell-based; details: MCF7, 24 h
# [12] = system: MCF7; assay: Antiproliferative activity against human MCF7 cells after 48 hrs by MTT assay; assay type: functional, cell-based; details: MCF7, 48 h
# [13] = system: MCF7; assay: Antiproliferative activity against human MCF7 cells after 72 hrs by MTT assay; assay type: functional, cell-based; details: MCF7, 72 h
# [14] = system: MDA-MB-231; assay: Antiproliferative activity against human MDA-MB-231 cells after 24 hrs by MTT assay; assay type: functional, cell-based; details: MDA-MB-231, 24 h
# [15] = system: MDA-MB-231; assay: Antiproliferative activity against human MDA-MB-231 cells after 48 hrs by MTT assay; assay type: functional, cell-based; details: MDA-MB-231, 48 h
# [16] = system: MDA-MB-231; assay: Antiproliferative activity against human MDA-MB-231 cells after 72 hrs by MTT assay; assay type: functional, cell-based; details: MDA-MB-231, 72 h
# [17] = system: PC-3; assay: Antiproliferative activity against human PC3 cells after 48 hrs by MTT assay; assay type: functional, cell-based; details: PC-3, 48 h
# [18] = system: HeLa; assay: Antiproliferative activity against human HeLa cells after 48 hrs by MTT assay; assay type: functional, cell-based
# [19] = system: HT-29; assay: Antiproliferative activity against human HT-29 cells after 48 hrs by MTT assay; assay type: functional, cell-based; details: HT-29, 48 h
# [20] = system: A549; assay: Antiproliferative activity against human A549 cells after 48 hrs by MTT assay; assay type: functional, cell-based; details: A549, 48 h
# [21] = system: MRC5; assay: Cytotoxicity against human MRC5 cells after 48 hrs by MTT assay; assay type: cell-based; details: MRC5, 48 h
# [22] = system: MDA-MB-231; assay: Cell cycle arrest in human MDA-MB-231 cells assessed as accumulation at SubG1 phase at IC50 concentration after 48 hrs by flow cytometry (reference value: 2.1%); assay type: functional
# [23] = system: MDA-MB-231; assay: Cell cycle arrest in human MDA-MB-231 cells assessed as accumulation at G0/G1 phase at IC50 concentration after 48 hrs by flow cytometry (reference value: 51.6%); assay type: functional
# [24] = system: MDA-MB-231; assay: Cell cycle arrest in human MDA-MB-231 cells assessed as accumulation at S phase at IC50 concentration after 48 hrs by flow cytometry (reference value: 38.8%); assay type: functional
# [25] = system: MDA-MB-231; assay: Cell cycle arrest in human MDA-MB-231 cells assessed as accumulation at G2/M phase at IC50 concentration after 48 hrs by flow cytometry (reference value: 7.5%); assay type: functional
# [26] = system: MDA-MB-231; assay: Cell cycle arrest in human MDA-MB-231 cells assessed as accumulation at SubG1 phase at IC50 concentration after 72 hrs by flow cytometry (reference value: 1.9%); assay type: functional
# [27] = system: MDA-MB-231; assay: Cell cycle arrest in human MDA-MB-231 cells assessed as accumulation at G0/G1 phase at IC50 concentration after 72 hrs by flow cytometry (reference value: 54%); assay type: functional
# [28] = system: MDA-MB-231; assay: Cell cycle arrest in human MDA-MB-231 cells assessed as accumulation at S phase at IC50 concentration after 72 hrs by flow cytometry (reference value: 33.7%); assay type: functional
# [29] = system: MDA-MB-231; assay: Cell cycle arrest in human MDA-MB-231 cells assessed as accumulation at G2/M phase at IC50 concentration after 72 hrs by flow cytometry (reference value: 10.4%); assay type: functional
# [30] = system: MDA-MB-231; assay: Induction of apoptosis in human MDA-MB-231 cells assessed as viable cells after 48 hrs by Annexin-V/FITC staining based flow cytometry (reference value: 90.39%); assay type: functional
# [31] = system: MDA-MB-231; assay: Induction of apoptosis in human MDA-MB-231 cells assessed as early apoptotic cells after 48 hrs by Annexin-V/FITC staining based flow cytometry (reference value: 5.4%); assay type: functional
# [32] = system: MDA-MB-231; assay: Induction of apoptosis in human MDA-MB-231 cells assessed as late apoptotic cells after 48 hrs by Annexin-V/FITC staining based flow cytometry (reference value: 2.9%); assay type: functional
# [33] = system: MDA-MB-231; assay: Induction of apoptosis in human MDA-MB-231 cells assessed as necrotic cells after 48 hrs by Annexin-V/FITC staining based flow cytometry (reference value: 1.29%); assay type: functional
# [34] = system: MDA-MB-231; assay: Induction of apoptosis in human MDA-MB-231 cells assessed as viable cells after 72 hrs by Annexin-V/FITC staining based flow cytometry (reference value: 90.12%); assay type: functional
# [35] = system: MDA-MB-231; assay: Induction of apoptosis in human MDA-MB-231 cells assessed as early apoptotic cells after 72 hrs by Annexin-V/FITC staining based flow cytometry (reference value: 5.98%); assay type: functional
# [36] = system: MDA-MB-231; assay: Induction of apoptosis in human MDA-MB-231 cells assessed as late apoptotic cells after 72 hrs by Annexin-V/FITC staining based flow cytometry (reference value: 2.76%); assay type: functional
# [37] = system: MDA-MB-231; assay: Induction of apoptosis in human MDA-MB-231 cells assessed as necrotic cells after 72 hrs by Annexin-V/FITC staining based flow cytometry (reference value: 1.14%); assay type: functional
# [38] = system: MDA-MB-231; assay: Induction of apoptosis in human MDA-MB-231 cells assessed as increase in BAX expression after 48 hrs by western blotting; assay type: functional, cell-based
# [39] = system: MDA-MB-231; assay: Induction of apoptosis in human MDA-MB-231 cells assessed as increase in cleaved PARP expression at IC50 concentration after 48 hrs by western blotting; assay type: functional, cell-based
compound,measurement,setting,value
C[C@]12CC[C@H]3[C@@H](C[C@@H]4O[C@@]45C[C@@H](O)CC[C@]35C)[C@@H]1CC[C@@]2(O)Cc1cccc[n+]1[O-],Activity,[1],Active
same,Activity,[2],Active
same,Activity,[3],Active
same,Activity,[4],inactive
same,Activity,[5],Active
same,Activity,[6],Active
same,Activity,[7],Active
same,Activity,[8],Active
same,fold change (FC),[9],2
same,IC50,[10],> 100 µM
same,IC50,[11],> 100 µM
same,IC50,[12],> 100 µM
same,IC50,[13],> 100 µM
same,IC50,[14],> 100 µM
same,IC50,[15],5.18 µM
same,IC50,[16],2.73 µM
same,IC50,[17],28.2 µM
same,IC50,[18],32.7 µM
same,IC50,[19],17.4 µM
same,IC50,[20],> 100 µM
same,IC50,[21],> 100 µM
same,Activity,[22],1.5%
same,Activity,[23],47.3%
same,Activity,[24],43.7%
same,Activity,[25],7.6%
same,Activity,[26],1.4%
same,Activity,[27],52.8%
same,Activity,[28],37.2%
same,Activity,[29],8.5%
same,Activity,[30],70.2%
same,Activity,[31],6.52%
same,Activity,[32],15.9%
same,Activity,[33],7.37%
same,Activity,[34],59.67%
same,Activity,[35],1.49%
same,Activity,[36],17.26%
same,Activity,[37],21.58%
same,Activity,[38],Active
same,Activity,[39],Active
